Molecules are shown by their SMILES.

Test [1] concerns phosphodiesterase type IV (PDE IV). The experiment in a line: Head-twitch test in rats (characteristic of PDE IV inhibitors). The format is in vivo, male Wistar rats. To be noted: observed 15-75 minutes after injection, MED = lowest dose with statistically significant effect. The protocol:
(§1) The improved effectiveness of the new chiral methylphenyloxazolidinone derivatives in comparison with the racemate can be shown based on the head twitch and grooming reactions in rats that are characteristic of phosphodiesterase type IV (PDE IV) inhibitors. The racemate and the appropriate enantiomers were administered intraperitoneally (i.p.) to male Wistar rats and the occurrence of head twitches and grooming for 15-75 minutes after injection was detected by observation.
(§2) MED: Minimum effective dose, i.e., the lowest dose that ensures a statistically significant effect.

The test system is the same in test [2]. The experiment in a line: Grooming reaction in rats (characteristic of PDE IV inhibitors). The class given is in vivo, male Wistar rats. To be noted: observed 15-75 minutes after injection, MED = lowest dose with statistically significant effect. The protocol:
as §1, §2

Test [3] concerns the target 3H-Rolipram bond in brain homogenates. The experiment in a line: Displacement of radiolabeled Rolipram in brain homogenates. The following applies: calculated from IC50: Ki = IC50/[1+(L/KD)]. The format is binding. The protocol:
The action of the enantiomers on the central nervous system was studied in vitro by examining their capacity to displace radiolabeled Rolipram in brain homogenates (Europ. Journ. of Pharmac. Vol. 127, 105-115 (1986)). The IC50 values (the concentration at which 50% inhibition action occurs) were converted to inhibition constant Ki, which is calculated according to the following formula: […]
in which L means the concentration of the radioactive tracer and KD means the dissociation constant of the ^3 H-Rolipram bond, which is determined separately.

A further test relates to TNF-α release. Put plainly: Inhibition of LPS-stimulated TNF-α release from macrophage cell line RAW 264 (Elisa). The format is cell-based, murine. The following applies: Mus musculus, RAW264.7, 30 min preincubation, LPS 10 ng/ml, 18 hours. The protocol: A murine macrophage cell line (RAW 264) was preincubated for 30 minutes in the presence and in the absence of various concentrations of PDE-IV inhibitors and then stimulated with LPS (10 ng/ml). 18 hours after stimulation, the culture medium was removed, and the TNF-α release was measured with a specific Elisa test. The test can be obtained from various companies, i.a., from the British biotechnology company Genzyme, and it is carried out as the manufacturer describes.

As for `COc1ccc(C2(C)CNC(=O)O2)cc1OC1CCCC1` (racemic) [(R,S) - 1, (R,S)-5-(3-Cyclopentyloxy-4-methoxyphenyl)-5-methyl-2-oxazolidinone], in test [1], the “Head-Twitch Test MED i.p.” value was determined as 1.56 mg/kg. For the same compound, in test [2], the “Grooming MED i.p.” value is recorded as 0.1 mg/kg. Also, in test [3], the Ki is 0.57 nM.
For `CCCOc1cc(C2(C)CNC(=O)O2)ccc1OC` (racemic) [(RS) - 2, (R,S)-5-(4-Methoxy-3-propoxyphenyl)-5-methyl-2-oxazolidinone], the inhibition constant Ki in test [3] was 0.61 nM. Moreover, in the test on TNF-α release, the IC50 was 500 nM.
As for `CCOc1cc(C2(C)CNC(=O)O2)ccc1OC` (racemic) [Ethyl- Racemate, (R,S)-5-(3-Ethoxy-4-methoxyphenyl)-5-methyl-2-oxazolidinone], the inhibition constant Ki in test [3] is 0.68 nM.
For `COc1ccc([C@]2(C)CNC(=O)O2)cc1OC1CCCC1` [(R) - (-) - 1, (R)-(-)-5-(3-Cyclopentyloxy-4-methoxyphenyl)-5-methyl-2-oxazolidinone], the “Head-Twitch Test MED i.p.” value in test [1] turned out to be 0.39 mg/kg. The “Grooming MED i.p.” value in test [2] amounted to 0.1 mg/kg. Moreover, in test [3], the Ki is 0.34 nM.
Turning to `CCCOc1cc([C@]2(C)CNC(=O)O2)ccc1OC` [(R) - (-) - 2, (R)-(-)-5-(4-Methoxy-3-propoxyphenyl)-5-methyl-2-oxazolidinone], the Ki in test [3] was 0.24 nM. For the same compound, it took 250 nM to reach half-maximal inhibition with TNF-α release (IC50).
Consider `COc1ccc([C@@]2(C)CNC(=O)O2)cc1OC1CCCC1` [(S) - (+) - 1, (S)-(+)-5-(3-Cyclopentyloxy-4-methoxyphenyl)-5-methyl-2-oxazolidinone], for which the “Head-Twitch Test MED i.p.” value in test [1] turned out to be 6.25 mg/kg. Also, in test [2], the “Grooming MED i.p.” value is 6.25 mg/kg. Further, the inhibition constant (Ki) in test [3] was 3 nM.
`CCCOc1cc([C@@]2(C)CNC(=O)O2)ccc1OC` [(S) - (+) - 2, (S)-(+)-5-(4-Methoxy-3-propoxyphenyl)-5-methyl-2-oxazolidinone]: the Ki in test [3] was 16 nM. The compound also returned an IC50 with TNF-α release of 2500 nM.
As for `CCOc1cc([C@]2(C)CNC(=O)O2)ccc1OC` [Ethyl- (R)-(-)-Isomer, (R)-(-)-5-(3-Ethoxy-4-methoxyphenyl)-5-methyl-2-oxazolidinone], the Ki in test [3] was 0.33 nM.
As for `CCOc1cc([C@@]2(C)CNC(=O)O2)ccc1OC` [Ethyl- (S)-(+)-Isomer, (S)-(+)-5-(3-Ethoxy-4-methoxyphenyl)-5-methyl-2-oxazolidinone], the Ki in test [3] was 20 nM.
